In ChEMBL document CHEMBL4507291 (2021):

Experiments:
[1] = tested on: T1, Receptor-type tyrosine-protein kinase FLT3 (Homo sapiens), P36888 [D835Y]
T1 sequence (whole entry): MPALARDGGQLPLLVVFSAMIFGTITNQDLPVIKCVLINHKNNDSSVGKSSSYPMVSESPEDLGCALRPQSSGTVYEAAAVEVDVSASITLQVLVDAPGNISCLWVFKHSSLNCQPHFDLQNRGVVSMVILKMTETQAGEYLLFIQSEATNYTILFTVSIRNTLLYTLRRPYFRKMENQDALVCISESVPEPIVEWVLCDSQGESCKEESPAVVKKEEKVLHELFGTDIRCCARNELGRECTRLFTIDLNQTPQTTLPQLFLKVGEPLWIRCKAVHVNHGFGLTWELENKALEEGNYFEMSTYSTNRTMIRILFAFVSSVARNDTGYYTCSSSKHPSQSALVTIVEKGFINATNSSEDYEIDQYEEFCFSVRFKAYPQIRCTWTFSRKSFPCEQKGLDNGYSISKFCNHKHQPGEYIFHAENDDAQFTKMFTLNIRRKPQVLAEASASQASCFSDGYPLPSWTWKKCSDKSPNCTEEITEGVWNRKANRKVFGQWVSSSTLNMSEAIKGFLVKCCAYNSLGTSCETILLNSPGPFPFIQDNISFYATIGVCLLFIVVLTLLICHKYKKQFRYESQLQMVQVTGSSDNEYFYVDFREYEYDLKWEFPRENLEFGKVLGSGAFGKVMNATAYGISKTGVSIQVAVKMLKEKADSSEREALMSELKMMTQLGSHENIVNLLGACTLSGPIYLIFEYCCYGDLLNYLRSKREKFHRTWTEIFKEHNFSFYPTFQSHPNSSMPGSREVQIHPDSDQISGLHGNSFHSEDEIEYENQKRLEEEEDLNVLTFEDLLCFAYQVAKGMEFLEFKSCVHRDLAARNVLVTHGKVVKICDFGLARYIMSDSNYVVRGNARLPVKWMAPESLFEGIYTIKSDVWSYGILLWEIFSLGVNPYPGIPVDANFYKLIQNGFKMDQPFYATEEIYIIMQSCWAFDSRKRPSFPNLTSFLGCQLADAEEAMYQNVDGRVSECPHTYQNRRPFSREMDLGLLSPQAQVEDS

[2] = molecular target: LIM domain kinase 2 (Homo sapiens) (UniProt P53671)
Chain of LIM domain kinase 2 (Homo sapiens) (P53671 whole entry, looked up, the tested form may be a part): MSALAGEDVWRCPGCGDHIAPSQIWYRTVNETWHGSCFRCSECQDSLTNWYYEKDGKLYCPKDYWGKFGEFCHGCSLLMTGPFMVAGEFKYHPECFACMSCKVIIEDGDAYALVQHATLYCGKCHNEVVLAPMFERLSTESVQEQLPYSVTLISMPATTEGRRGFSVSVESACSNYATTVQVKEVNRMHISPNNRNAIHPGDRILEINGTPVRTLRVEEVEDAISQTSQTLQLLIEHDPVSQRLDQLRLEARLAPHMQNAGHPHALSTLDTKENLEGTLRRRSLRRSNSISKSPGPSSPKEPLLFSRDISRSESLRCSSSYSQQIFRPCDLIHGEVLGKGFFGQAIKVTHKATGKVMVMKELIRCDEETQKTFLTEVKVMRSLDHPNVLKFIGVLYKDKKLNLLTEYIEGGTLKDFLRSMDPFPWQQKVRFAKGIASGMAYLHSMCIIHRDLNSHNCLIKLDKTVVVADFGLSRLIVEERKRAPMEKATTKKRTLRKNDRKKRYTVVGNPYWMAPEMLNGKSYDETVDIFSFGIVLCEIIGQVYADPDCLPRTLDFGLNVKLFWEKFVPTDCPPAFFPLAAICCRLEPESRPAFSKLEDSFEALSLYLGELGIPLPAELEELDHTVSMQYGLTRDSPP

[3] = molecular target: Histamine H2 receptor (Homo sapiens) (UniProt P25021); conditions: Compound concentration 10.0 uM
Chain of Histamine H2 receptor (Homo sapiens) (P25021 whole entry): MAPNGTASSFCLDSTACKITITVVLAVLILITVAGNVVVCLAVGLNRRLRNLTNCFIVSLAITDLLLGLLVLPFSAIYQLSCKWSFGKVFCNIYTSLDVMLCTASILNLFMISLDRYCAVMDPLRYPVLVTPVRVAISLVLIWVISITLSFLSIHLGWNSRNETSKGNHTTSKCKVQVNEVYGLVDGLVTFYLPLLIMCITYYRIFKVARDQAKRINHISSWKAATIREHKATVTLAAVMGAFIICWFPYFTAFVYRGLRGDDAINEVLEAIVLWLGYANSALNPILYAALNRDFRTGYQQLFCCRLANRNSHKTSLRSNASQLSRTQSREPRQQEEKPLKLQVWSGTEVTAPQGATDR

[4] = molecular target: Tyrosine-protein kinase HCK (Homo sapiens) (UniProt P08631)
Chain of Tyrosine-protein kinase HCK (Homo sapiens) (P08631 2-526 limits assumed): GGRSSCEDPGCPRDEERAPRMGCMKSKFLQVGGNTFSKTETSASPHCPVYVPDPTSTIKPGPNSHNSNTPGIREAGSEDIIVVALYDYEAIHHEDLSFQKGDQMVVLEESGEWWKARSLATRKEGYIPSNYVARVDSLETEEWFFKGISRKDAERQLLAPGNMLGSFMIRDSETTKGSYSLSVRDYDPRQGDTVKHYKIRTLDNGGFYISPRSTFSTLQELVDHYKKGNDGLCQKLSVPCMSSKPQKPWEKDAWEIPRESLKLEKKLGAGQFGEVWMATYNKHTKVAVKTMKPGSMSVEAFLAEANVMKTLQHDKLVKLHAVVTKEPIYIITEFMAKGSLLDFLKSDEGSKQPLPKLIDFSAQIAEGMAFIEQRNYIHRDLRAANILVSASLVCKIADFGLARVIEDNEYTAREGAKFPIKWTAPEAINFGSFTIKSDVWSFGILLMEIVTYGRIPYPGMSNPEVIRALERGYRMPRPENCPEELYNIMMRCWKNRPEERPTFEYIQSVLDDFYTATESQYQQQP

[5] = tested on: Mast/stem cell growth factor receptor Kit (Homo sapiens), P10721 [D816H]
Chain of Mast/stem cell growth factor receptor Kit (Homo sapiens), P10721 [D816H] (P10721 whole entry D816H): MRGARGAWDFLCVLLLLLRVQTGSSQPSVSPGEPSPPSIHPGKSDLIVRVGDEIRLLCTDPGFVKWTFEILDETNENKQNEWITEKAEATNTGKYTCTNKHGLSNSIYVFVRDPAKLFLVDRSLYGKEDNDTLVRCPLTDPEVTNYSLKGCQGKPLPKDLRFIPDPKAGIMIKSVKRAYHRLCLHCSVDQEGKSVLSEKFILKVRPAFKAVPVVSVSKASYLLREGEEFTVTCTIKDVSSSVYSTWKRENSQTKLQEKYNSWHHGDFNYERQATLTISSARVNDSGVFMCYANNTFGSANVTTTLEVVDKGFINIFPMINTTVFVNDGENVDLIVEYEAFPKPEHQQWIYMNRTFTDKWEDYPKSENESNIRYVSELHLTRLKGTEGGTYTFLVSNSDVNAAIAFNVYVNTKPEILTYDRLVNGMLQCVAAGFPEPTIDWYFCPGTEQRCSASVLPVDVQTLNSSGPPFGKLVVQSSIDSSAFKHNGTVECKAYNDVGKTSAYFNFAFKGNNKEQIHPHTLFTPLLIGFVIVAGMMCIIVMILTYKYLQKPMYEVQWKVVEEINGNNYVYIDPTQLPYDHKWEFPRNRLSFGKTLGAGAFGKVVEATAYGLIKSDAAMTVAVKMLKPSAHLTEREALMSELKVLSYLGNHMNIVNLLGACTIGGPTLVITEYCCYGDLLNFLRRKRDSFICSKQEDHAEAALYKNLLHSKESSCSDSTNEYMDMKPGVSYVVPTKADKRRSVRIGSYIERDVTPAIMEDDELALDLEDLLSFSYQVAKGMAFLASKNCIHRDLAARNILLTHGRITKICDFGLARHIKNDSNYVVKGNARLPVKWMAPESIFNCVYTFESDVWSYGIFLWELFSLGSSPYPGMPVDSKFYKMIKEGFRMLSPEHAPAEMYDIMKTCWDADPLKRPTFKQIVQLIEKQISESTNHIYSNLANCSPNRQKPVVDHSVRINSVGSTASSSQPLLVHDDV

[6] = molecular target: T2, Mitogen-activated protein kinase kinase kinase 3 (Homo sapiens) (UniProt Q99759)
T2 sequence (whole entry): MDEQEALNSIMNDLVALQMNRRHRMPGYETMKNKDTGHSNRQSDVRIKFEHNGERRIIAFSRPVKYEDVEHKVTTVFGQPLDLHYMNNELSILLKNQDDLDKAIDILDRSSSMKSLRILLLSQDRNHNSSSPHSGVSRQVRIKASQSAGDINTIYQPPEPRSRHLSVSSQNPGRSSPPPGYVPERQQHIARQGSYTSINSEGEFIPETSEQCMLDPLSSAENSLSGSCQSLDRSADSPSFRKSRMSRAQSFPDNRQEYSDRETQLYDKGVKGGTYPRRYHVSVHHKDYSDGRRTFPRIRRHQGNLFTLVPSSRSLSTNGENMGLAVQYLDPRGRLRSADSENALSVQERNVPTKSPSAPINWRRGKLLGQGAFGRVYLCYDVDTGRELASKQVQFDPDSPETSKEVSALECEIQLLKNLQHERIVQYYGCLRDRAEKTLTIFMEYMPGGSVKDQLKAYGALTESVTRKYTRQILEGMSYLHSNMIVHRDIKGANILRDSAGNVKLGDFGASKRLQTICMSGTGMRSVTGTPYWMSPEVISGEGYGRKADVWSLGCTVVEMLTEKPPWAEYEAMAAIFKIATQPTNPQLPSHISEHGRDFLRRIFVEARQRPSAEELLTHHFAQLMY

[7] = molecular target: T3, Mitogen-activated protein kinase kinase kinase 2 (Homo sapiens) (UniProt Q9Y2U5)
T3 sequence (whole entry): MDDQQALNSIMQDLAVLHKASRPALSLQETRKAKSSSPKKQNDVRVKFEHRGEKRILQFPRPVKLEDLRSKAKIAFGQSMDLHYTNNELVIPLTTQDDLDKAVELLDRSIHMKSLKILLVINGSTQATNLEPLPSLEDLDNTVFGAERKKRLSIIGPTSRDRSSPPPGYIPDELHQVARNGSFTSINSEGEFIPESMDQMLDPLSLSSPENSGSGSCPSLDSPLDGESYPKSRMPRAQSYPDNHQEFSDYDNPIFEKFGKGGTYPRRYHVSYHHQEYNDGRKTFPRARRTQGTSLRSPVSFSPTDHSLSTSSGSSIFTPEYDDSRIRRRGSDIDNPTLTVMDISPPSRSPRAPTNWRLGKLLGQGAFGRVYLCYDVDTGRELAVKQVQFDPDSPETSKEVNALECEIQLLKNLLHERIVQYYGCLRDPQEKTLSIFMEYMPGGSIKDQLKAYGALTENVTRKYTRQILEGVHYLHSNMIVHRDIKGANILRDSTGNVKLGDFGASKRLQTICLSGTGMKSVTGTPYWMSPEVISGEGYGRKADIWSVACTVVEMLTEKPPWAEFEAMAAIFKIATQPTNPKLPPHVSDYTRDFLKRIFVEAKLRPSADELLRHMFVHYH

[8] = molecular target: Calcium/calmodulin-dependent protein kinase type II subunit gamma (Homo sapiens) (UniProt Q13555)
Chain of Calcium/calmodulin-dependent protein kinase type II subunit gamma (Homo sapiens) (Q13555 whole entry): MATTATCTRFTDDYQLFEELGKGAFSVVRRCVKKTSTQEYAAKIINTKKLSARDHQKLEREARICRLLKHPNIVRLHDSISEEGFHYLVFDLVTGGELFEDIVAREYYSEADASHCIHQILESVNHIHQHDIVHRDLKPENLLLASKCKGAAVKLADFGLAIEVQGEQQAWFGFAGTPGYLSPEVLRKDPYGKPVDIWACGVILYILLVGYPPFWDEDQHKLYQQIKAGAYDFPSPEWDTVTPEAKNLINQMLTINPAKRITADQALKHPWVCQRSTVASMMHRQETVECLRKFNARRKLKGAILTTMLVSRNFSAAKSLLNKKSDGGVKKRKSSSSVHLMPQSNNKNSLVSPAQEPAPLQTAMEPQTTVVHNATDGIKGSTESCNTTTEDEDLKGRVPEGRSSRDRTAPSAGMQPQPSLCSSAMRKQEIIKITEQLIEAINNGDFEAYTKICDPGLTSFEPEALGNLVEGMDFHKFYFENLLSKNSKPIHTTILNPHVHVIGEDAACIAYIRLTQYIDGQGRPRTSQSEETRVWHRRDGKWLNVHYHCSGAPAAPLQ

[9] = molecular target: T4, Mitogen-activated protein kinase 13 (Homo sapiens) (UniProt O15264)
T4 sequence (whole entry): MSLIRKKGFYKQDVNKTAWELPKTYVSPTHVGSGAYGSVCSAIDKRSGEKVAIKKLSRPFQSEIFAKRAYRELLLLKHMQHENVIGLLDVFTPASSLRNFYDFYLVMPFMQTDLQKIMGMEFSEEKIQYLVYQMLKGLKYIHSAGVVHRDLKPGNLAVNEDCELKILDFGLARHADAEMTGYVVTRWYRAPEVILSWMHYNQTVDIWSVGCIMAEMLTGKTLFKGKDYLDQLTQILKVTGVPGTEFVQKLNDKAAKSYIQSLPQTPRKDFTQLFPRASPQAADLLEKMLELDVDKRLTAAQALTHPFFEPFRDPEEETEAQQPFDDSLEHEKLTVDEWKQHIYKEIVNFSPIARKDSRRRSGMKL

[10] = molecular target: Serine/threonine-protein kinase MAK (Homo sapiens) (UniProt P20794)
Chain of Serine/threonine-protein kinase MAK (Homo sapiens) (P20794 whole entry): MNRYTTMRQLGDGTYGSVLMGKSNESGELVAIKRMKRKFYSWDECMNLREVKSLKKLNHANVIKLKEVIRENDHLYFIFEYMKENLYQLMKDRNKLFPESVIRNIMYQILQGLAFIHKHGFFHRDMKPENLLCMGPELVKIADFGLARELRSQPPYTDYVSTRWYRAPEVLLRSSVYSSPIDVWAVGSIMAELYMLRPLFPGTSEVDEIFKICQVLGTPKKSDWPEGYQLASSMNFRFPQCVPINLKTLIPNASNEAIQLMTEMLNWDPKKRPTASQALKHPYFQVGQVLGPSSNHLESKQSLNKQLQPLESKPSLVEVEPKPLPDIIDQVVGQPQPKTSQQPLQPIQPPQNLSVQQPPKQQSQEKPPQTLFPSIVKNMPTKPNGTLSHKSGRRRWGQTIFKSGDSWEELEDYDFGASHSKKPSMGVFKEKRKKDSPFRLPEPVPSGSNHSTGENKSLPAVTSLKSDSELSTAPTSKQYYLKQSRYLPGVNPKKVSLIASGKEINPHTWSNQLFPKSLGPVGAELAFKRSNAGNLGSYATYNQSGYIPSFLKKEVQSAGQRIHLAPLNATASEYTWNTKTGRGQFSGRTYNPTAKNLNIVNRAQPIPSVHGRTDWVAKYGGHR

[11] = Compound concentration 100.0 nM
[12] = Compound concentration 1000.0 nM

C[C@@H]1CN(c2cc(-c3n[nH]c4ccc(OC5(C)CC5)cc34)ncn2)C[C@H](C)O1 [MLi-2]
inactive: residual activity [1, 11] 100% | residual activity [2, 11] 91% | inhibition [3] 6.26% | residual activity [4, 11] 84% | residual activity [5, 11] 67% | residual activity [6, 11] 64% | residual activity [7, 11] 73% | residual activity [8, 11] 100% | residual activity [9, 11] 96% | residual activity [10, 11] 95%

C[C@@H]1CN(c2cc(-c3nn(C)c4ccc(OC5(C)CC5)cc34)ncn2)C[C@H](C)O1 [MLi-2-NC]
inactive: residual activity [1, 12] 100% | residual activity [2, 12] 92% | inhibition [3] 18.4% | residual activity [4, 12] 96% | residual activity [5, 12] 64% | residual activity [6, 12] 90% | residual activity [7, 12] 83% | residual activity [8, 12] 90% | residual activity [9, 12] 100% | residual activity [10, 12] 100%
